Structures can show the parent of a compound that is named as a salt. Bounds are passed on as bounds.

For one assay, the target named is T1, MASP-2 (CCP1-CCP2-SP) (Homo sapiens, UniProt O00187).
T1 construct: 15 μL of Enzyme MASP-2 (CCP1-CCP2-SP) in Assay Buffer
Kind of assay: Enzymatic assay for MASP-2 inhibitory activity (fluorogenic substrate). Type of assay: biochemical. An outline of the steps:
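MASP-2 (CCP1-CCP2-SP) cleaved a fluorogenic substrate based on the C2 cleavage site in 20 mM HEPES pH 7.4, 140 mM NaCl, 0.1% Tween 20 at room temperature. After 20 min the reaction was stopped with 0.1 M acetic acid and fluorescence read. % activity was normalized to DMSO-only and no-enzyme controls; IC50 taken as Ki.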

Another assay concerns the target T2, human α-thrombin (Homo sapiens, UniProt P00734).
T2 construct: enzyme (human α-thrombin (BioPharm® Lab.)) in assay buffer; purchased BioPharm® Lab
Kind of assay: Enzymatic assay for thrombin (fluorogenic peptide substrate Boc-VPR-AMC). The assay is classed as biochemical. The method in brief:
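Human α-thrombin was run with the fluorogenic substrate Boc-VPR-AMC in 20 mM Hepes pH 7.4, 140 mM NaCl, 0.1% Tween 20 at room temperature for 20 min, then stopped with 0.1 M acetic acid. % activity was normalized to DMSO and no-enzyme controls. Under linear conditions IC50 equalled Ki, except for tight-binding inhibitors.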

T1 sequence (O00187 445-686 limits assumed): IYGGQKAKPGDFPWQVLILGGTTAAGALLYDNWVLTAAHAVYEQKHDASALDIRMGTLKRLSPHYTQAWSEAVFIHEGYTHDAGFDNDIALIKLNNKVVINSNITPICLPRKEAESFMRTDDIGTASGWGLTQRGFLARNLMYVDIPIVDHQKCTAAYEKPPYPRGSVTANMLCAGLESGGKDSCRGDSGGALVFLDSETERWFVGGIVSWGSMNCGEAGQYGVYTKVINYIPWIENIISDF
T1 sequence (O00187 287-444 partner limits assumed): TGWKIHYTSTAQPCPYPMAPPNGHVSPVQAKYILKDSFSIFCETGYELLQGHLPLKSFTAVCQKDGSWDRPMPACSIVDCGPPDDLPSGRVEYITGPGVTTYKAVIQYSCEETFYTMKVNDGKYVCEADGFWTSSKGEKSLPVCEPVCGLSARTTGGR

As to `Cc1cccc([C@H](C)Nc2ncc3n(c2=O)[C@H](C(=O)NCc2cc4cnccc4[nH]2)CC3)c1` [Compound 74, (S)-N-((1H-pyrrolo[3,2-c]pyridin-2-yl)methyl)-4-oxo-3-(((S)-1-(m-tolyl)ethyl)amino)-4,6,7,8-tetrahydropyrrolo[1,2-a]pyrazine-6-carboxamide], the Ki (usually a measure of affinity in units of concentration, obtained from inhibition or displacement) on MASP-2 (CCP1-CCP2-SP) is below 500 nM; at human α-thrombin it was 500 to 2500 nM.
For `COc1cc(F)cc(CNc2ncc3n(c2=O)[C@H](C(=O)NCc2ccc(N)nc2C)CC3)c1` [Compound 171, (S)-N-((6-amino-2-methylpyridin-3-yl)methyl)-3-((3-fluoro-5-methoxybenzyl)amino)-4-oxo-4,6,7,8-tetrahydropyrrolo[1,2-a]pyrazine-6-carboxamide trifluoroacetate], in that order: below 500 nM and below 500 nM.
With `O=C(NCc1cc2c(s1)CNC2)[C@@H]1CCc2cnc(NC3(c4ccccc4)CCC3)c(=O)n21` [Compound 261, (S)-N-((5,6-dihydro-4H-thieno[2,3-c]pyrrol-2-yl)methyl)-4-oxo-3-((1-phenylcyclobutyl)amino)-4,6,7,8-tetrahydropyrrolo[1,2-a]pyrazine-6-carboxamide trifluoroacetate], the inhibition constant (Ki) at MASP-2 (CCP1-CCP2-SP) and on human α-thrombin was below 500 nM each time.
In the case of `Cc1nc(N)ccc1CNC(=O)[C@@H]1CCc2cnc(NCc3ccc4c(cnn4C)c3)c(=O)n21` [Compound 172], the Ki at MASP-2 (CCP1-CCP2-SP) and at human α-thrombin was below 500 nM throughout.
With `Cc1ccc(CNc2nc(Cl)c3n(c2=O)[C@H](C(=O)NCc2cc4cnccc4[nH]2)CC3)cc1C` [Compound 26, (S)-N-((1H-pyrrolo[3,2-c]pyridin-2-yl)methyl)-1-chloro-3-((3,4-dimethylbenzyl)amino)-4-oxo-4,6,7,8-tetrahydropyrrolo[1,2-a]pyrazine-6-carboxamide], the Ki at MASP-2 (CCP1-CCP2-SP) was below 500 nM; at human α-thrombin, 10000 to 25000 nM.
As to `Cc1ccc(F)c(CNc2nc(Cl)c3n(c2=O)[C@H](C(=O)NCc2ccc(N)nc2C)CC3)c1` [Compound 20, (S)-N-((6-amino-2-methylpyridin-3-yl)methyl)-1-chloro-3-((2-fluoro-5-methylbenzyl)amino)-4-oxo-4,6,7,8-tetrahydropyrrolo[1,2-a]pyrazine-6-carboxamide], the Ki on MASP-2 (CCP1-CCP2-SP) was below 500 nM; at human α-thrombin it was 500 to 2500 nM.
For the compound `CC[C@H]1C[C@@H](C(=O)NCc2cc3c(s2)CNC3)n2c1c(Cl)nc(NCc1ccccc1)c2=O` [Compound 158, (6S,8S)-3-(benzylamino)-1-chloro-N-((5,6-dihydro-4H-thieno[2,3-c]pyrrol-2-yl)methyl)-8-ethyl-4-oxo-4,6,7,8-tetrahydropyrrolo[1,2-a]pyrazine-6-carboxamide hydrochloride], the Ki at MASP-2 (CCP1-CCP2-SP) is below 500 nM; on human α-thrombin, 2500 to 10000 nM.
In the case of `Cc1nc(N)ccc1CNC(=O)[C@@H]1CCc2cnc(NCc3cnn(-c4ccccc4)c3)c(=O)n21` [Compound 166, (S)—N-((6-amino-2-methylpyridin-3-yl)methyl)-4-oxo-3-(((1-phenyl-1h-pyrazol-4-yl)methyl)amino)-4,6,7,8-tetrahydropyrrolo[1,2-a]pyrazine-6-carboxamide trifluoroacetate], the values for the Ki on MASP-2 (CCP1-CCP2-SP) and on human α-thrombin were below 500 nM and 500 to 2500 nM, respectively.
Turning to `O=C(NCc1cc2c(s1)CNC2)[C@@H]1CCc2cnc(N[C@@H]3CCc4ccccc43)c(=O)n21` [Compound 254, (S)-3-(((R)-2,3-dihydro-1H-inden-1-yl)amino)-N-((5,6-dihydro-4H-thieno[2,3-c]pyrrol-2-yl)methyl)-4-oxo-4,6,7,8-tetrahydropyrrolo[1,2-a]pyrazine-6-carboxamide], the figures for the Ki on MASP-2 (CCP1-CCP2-SP) and at human α-thrombin were below 500 nM and 500 to 2500 nM, respectively.
For `Cc1ccccc1[C@H](C)Nc1ncc2n(c1=O)[C@H](C(=O)NCc1cc3c(s1)CNC3)CC2` [Compound 94, (S)-N-((5,6-dihydro-4H-thieno[2,3-c]pyrrol-2-yl)methyl)-4-oxo-3-(((S)-1-(o-tolyl)ethyl)amino)-4,6,7,8-tetrahydropyrrolo[1,2-a]pyrazine-6-carboxamide], in that order: below 500 nM and 500 to 2500 nM.
With `O=C(NCc1cc2cnccc2[nH]1)[C@@H]1CCc2cnc(NCc3cc(F)cc(F)c3)c(=O)n21` [Compound 54, (S)-N-((1H-pyrrolo[3,2-c]pyridin-2-yl)methyl)-3-((3,5-difluorobenzyl)amino)-4-oxo-4,6,7,8-tetrahydropyrrolo[1,2-a]pyrazine-6-carboxamide], the inhibition constant Ki was below 500 nM on MASP-2 (CCP1-CCP2-SP) and 500 to 2500 nM on human α-thrombin.
With `C[C@@H]1C[C@@H](C(=O)NCc2cc3cnccc3[nH]2)n2c1cnc(NCc1ccccc1)c2=O` [Compound 227, trifluoroacetate], the Ki at MASP-2 (CCP1-CCP2-SP) was below 500 nM; at human α-thrombin, 2500 to 10000 nM.
`O=C(NCc1cc2c(s1)CNC2)[C@@H]1CCc2c(Cl)nc(NCc3cccc(C(F)F)c3)c(=O)n21` [Compound 34, (S)-1-chloro-3-((3-(difluoromethyl)benzyl)amino)-N-((5,6-dihydro-4H-thieno[2,3-c]pyrrol-2-yl)methyl)-4-oxo-4,6,7,8-tetrahydropyrrolo[1,2-a]pyrazine-6-carboxamide]: the inhibitory constant (Ki) was below 500 nM at MASP-2 (CCP1-CCP2-SP) and 2500 to 10000 nM on human α-thrombin.
The like results for `O=C(NCc1cc2c(s1)CNC2)[C@@H]1CCc2cnc(NCc3cccc(-c4ccccc4)c3)c(=O)n21` [Compound 285, (S)-3-(([1,1′-biphenyl]-3-ylmethyl)amino)-N-((5,6-dihydro-4H-thieno[2,3-c]pyrrol-2-yl)methyl)-4-oxo-4,6,7,8-tetrahydropyrrolo[1,2-a]pyrazine-6-carboxamide trifluoroacetate] were, in that order, below 500 nM and 500 to 2500 nM.
For `CCc1cccc(CNc2ncc3n(c2=O)[C@H](C(=O)N[C@H](C)c2ccc(N)nc2)CC3)c1` [Compound 195, (S)-N-((R)-1-(6-aminopyridin-3-yl)ethyl)-3-((3-ethylbenzyl)amino)-4-oxo-4,6,7,8-tetrahydropyrrolo[1,2-a]pyrazine-6-carboxamide trifluoroacetate], in that order: below 500 nM and 2500 to 10000 nM.
With `Cc1ccccc1CNc1nc(Cl)c2n(c1=O)[C@H](C(=O)NCc1cc3cnccc3[nH]1)CC2` [Compound 9, (S)-N-((1H-pyrrolo[3,2-c]pyridin-2-yl)methyl)-1-chloro-3-((2-methylbenzyl)amino)-4-oxo-4,6,7,8-tetrahydropyrrolo[1,2-a]pyrazine-6-carboxamide], the Ki at MASP-2 (CCP1-CCP2-SP) is below 500 nM; on human α-thrombin, 2500 to 10000 nM.
Regarding `Cc1cc(C)cc(CNc2ncc3n(c2=O)[C@H](C(=O)NCc2ccncc2)CC3)c1` [Compound 86, (S)-3-((3,5-dimethylbenzyl)amino)-4-oxo-N-(pyridin-4-ylmethyl)-4,6,7,8-tetrahydropyrrolo[1,2-a]pyrazine-6-carboxamide], the values for the Ki on MASP-2 (CCP1-CCP2-SP) and on human α-thrombin were 500 to 2500 nM and above 25000 nM, respectively.
For the compound `CCc1cccc(CNc2ncc3n(c2=O)[C@H](C(=O)NCc2cc4cnccc4[nH]2)CC3)c1` [Compound 45, (S)-N-((1H-pyrrolo[3,2-c]pyridin-2-yl)methyl)-3-((3-ethylbenzyl)amino)-4-oxo-4,6,7,8-tetrahydropyrrolo[1,2-a]pyrazine-6-carboxamide], the inhibition constant Ki at MASP-2 (CCP1-CCP2-SP) and at human α-thrombin was below 500 nM throughout.

The values are drawn from US20250122225A1, “MASP-2 INHIBITORS AND METHODS OF USE” (Omeros Corporation, priority 2023, published 2025).
